Data published in article PMC5218480 (PLoS ONE, 2017).

Test system: MV-4-11 cells
Assay: Gene expression microarray analysis (Affymetrix PrimeView) and GSEA
Assay type: cell-based, human
Set-up: RFU PODN (11730768_x_at) / Fold change /veh PODN (11730768_x_at) / RFU LINC00158 (11744669_a_at) / Fold change /veh LINC00158 (11744669_a_at) / RFU DUSP10 (11751237_a_at) / Fold change /veh DUSP10 (11751237_a_at) / RFU ID3 (11757404_x_at) / Fold change /veh ID3 (11757404_x_at) / RFU PLEKHG5 (11737974_s_at) / Fold change /veh PLEKHG5 (11737974_s_at) / RFU LRRC4B (11730491_at) / Fold change /veh LRRC4B (11730491_at) / RFU GIMAP4 (11747438_a_at) / Fold change /veh GIMAP4 (11747438_a_at) / RFU KRT8 (11758183_x_at) / Fold change /veh KRT8 (11758183_x_at) / RFU CNN1 (11734310_a_at) / Fold change /veh CNN1 (11734310_a_at) / RFU VPS37D (11726825_at) / Fold change /veh VPS37D (11726825_at) / RFU C10orf10 (11716522_x_at) / Fold change /veh C10orf10 (11716522_x_at) / RFU KIR2DL2 /// KIR2DL4 /// KIR2DL5A /// KIR2DL5B /// KIR2DS1 /// KIR2DS2 /// KIR2DS3 /// KIR2DS4 /// KIR3DL3 /// KIR3DL3 /// KIR3DS1 (11738374_at) / Fold change /veh KIR2DL2 /// KIR2DL4 /// KIR2DL5A /// KIR2DL5B /// KIR2DS1 /// KIR2DS2 /// KIR2DS3 /// KIR2DS4 /// KIR3DL3 /// KIR3DL3 /// KIR3DS1 (11738374_at) / RFU C1QL1 (11718748_at) / Fold change /veh C1QL1 (11718748_at) / RFU TMPRSS4 (11747572_a_at) / Fold change /veh TMPRSS4 (11747572_a_at) / RFU HAMP (11756126_x_at) / Fold change /veh HAMP (11756126_x_at) / RFU RNFT2 (11725882_a_at) / Fold change /veh RNFT2 (11725882_a_at) / RFU NR4A2 (11747474_a_at) / Fold change /veh NR4A2 (11747474_a_at) / RFU ABCC12 (11746883_a_at) / Fold change /veh ABCC12 (11746883_a_at) / RFU TMEM136 (11760407_x_at) / Fold change /veh TMEM136 (11760407_x_at) / RFU CLDN22 /// WWC2 (11732394_at) / Fold change /veh CLDN22 /// WWC2 (11732394_at) / RFU HLA-DPB1 (11760878_x_at) / Fold change /veh HLA-DPB1 (11760878_x_at) / RFU SPINT1 (11716480_a_at) / Fold change /veh SPINT1 (11716480_a_at) / RFU GAP43 (11754022_s_at) / Fold change /veh GAP43 (11754022_s_at) / RFU A4GNT (11735810_at) / Fold change /veh A4GNT (11735810_at) / RFU PRB3 (11715151_x_at) / Fold change /veh PRB3 (11715151_x_at) / RFU TUBB4B (11761932_at) / Fold change /veh TUBB4B (11761932_at) / RFU CAPN14 (11732068_a_at) / Fold change /veh CAPN14 (11732068_a_at) / RFU TMCC2 (11721928_a_at) / Fold change /veh TMCC2 (11721928_a_at) / RFU IRGQ (11745062_a_at) / Fold change /veh IRGQ (11745062_a_at) / RFU FAM174B (11720279_a_at) / Fold change /veh FAM174B (11720279_a_at) / RFU TMPRSS4 (11748680_a_at) / Fold change /veh TMPRSS4 (11748680_a_at) / RFU FAM212B (11763350_a_at) / Fold change /veh FAM212B (11763350_a_at) / RFU PLEKHG5 (11743358_a_at) / Fold change /veh PLEKHG5 (11743358_a_at) / RFU ZSCAN30 (11745921_a_at) / Fold change /veh ZSCAN30 (11745921_a_at) / RFU CMKLR1 (11741424_a_at) / Fold change /veh CMKLR1 (11741424_a_at) / RFU LOC101060620 /// MAPK8IP1 (11723275_at) / Fold change /veh LOC101060620 /// MAPK8IP1 (11723275_at) / RFU SPTSSB (11747773_x_at) / Fold change /veh SPTSSB (11747773_x_at) / RFU PRSS12 (11739890_at) / Fold change /veh PRSS12 (11739890_at) / RFU BIN1 (11741810_x_at) / Fold change /veh BIN1 (11741810_x_at) / RFU WNT11 (11732464_a_at) / Fold change /veh WNT11 (11732464_a_at) / RFU C10orf10 (11716521_a_at) / Fold change /veh C10orf10 (11716521_a_at) / RFU C5orf56 (11738089_at) / Fold change /veh C5orf56 (11738089_at) / RFU CYB561 (11721691_x_at) / Fold change /veh CYB561 (11721691_x_at) / RFU ANKRD19P (11752326_a_at) / Fold change /veh ANKRD19P (11752326_a_at) / RFU OR2T12 /// OR2T33 /// OR2T8 (11738714_s_at) / Fold change /veh OR2T12 /// OR2T33 /// OR2T8 (11738714_s_at) / RFU VCAN (11748164_a_at) / Fold change /veh VCAN (11748164_a_at) / RFU JSRP1 (11732532_at) / Fold change /veh JSRP1 (11732532_at) / RFU KRTAP10-11 (11738290_x_at) / Fold change /veh KRTAP10-11 (11738290_x_at) / RFU MYO3A (11730013_a_at) / Fold change /veh MYO3A (11730013_a_at) / RFU EBF3 (11725865_a_at) / Fold change /veh EBF3 (11725865_a_at) / RFU CAMK2N1 (11719241_x_at) / Fold change /veh CAMK2N1 (11719241_x_at) / RFU C5orf56 (11738088_a_at) / Fold change /veh C5orf56 (11738088_a_at) / RFU OLFML3 (11715873_a_at) / Fold change /veh OLFML3 (11715873_a_at) / RFU LOC100653217 /// NTM (11731650_a_at) / Fold change /veh LOC100653217 /// NTM (11731650_a_at) / RFU MAPK11 (11762145_a_at) / Fold change /veh MAPK11 (11762145_a_at) / RFU FIZ1 (11724087_x_at) / Fold change /veh FIZ1 (11724087_x_at) / RFU OASL (11726364_x_at) / Fold change /veh OASL (11726364_x_at) / RFU SOX15 (11748057_x_at) / Fold change /veh SOX15 (11748057_x_at) / RFU CD79A (11719716_a_at) / Fold change /veh CD79A (11719716_a_at) / RFU HIST1H1D (11736915_at) / Fold change /veh HIST1H1D (11736915_at) / RFU CASKIN2 (11723855_a_at) / Fold change /veh CASKIN2 (11723855_a_at) / RFU LOC730098 (11760151_x_at) / Fold change /veh LOC730098 (11760151_x_at) / RFU OR4N2 (11742367_at) / Fold change /veh OR4N2 (11742367_at) / RFU PRRT2 (11749266_a_at) / Fold change /veh PRRT2 (11749266_a_at) / RFU SNX32 (11753110_a_at) / Fold change /veh SNX32 (11753110_a_at) / RFU CDHR5 (11726645_a_at) / Fold change /veh CDHR5 (11726645_a_at) / RFU RCAN1 (11760418_a_at) / Fold change /veh RCAN1 (11760418_a_at) / RFU FAM167A (11723789_a_at) / Fold change /veh FAM167A (11723789_a_at) / RFU FAM26E (11764081_at) / Fold change /veh FAM26E (11764081_at) / RFU ISYNA1 (11749810_s_at) / Fold change /veh ISYNA1 (11749810_s_at) / RFU ACY1 (11761880_at) / Fold change /veh ACY1 (11761880_at) / RFU 11764098_at / Fold change /veh 11764098_at / RFU SAMD14 (11745864_x_at) / Fold change /veh SAMD14 (11745864_x_at) / RFU NPB (11741838_a_at) / Fold change /veh NPB (11741838_a_at) / RFU TMPRSS6 (11731388_a_at) / Fold change /veh TMPRSS6 (11731388_a_at) / RFU KRTAP10-2 (11738614_at) / Fold change /veh KRTAP10-2 (11738614_at) / RFU ARHGAP8 /// PRR5-ARHGAP8 (11727945_x_at) / Fold change /veh ARHGAP8 /// PRR5-ARHGAP8 (11727945_x_at) / RFU KRTAP5-7 /// NADSYN1 (11734609_at) / Fold change /veh KRTAP5-7 /// NADSYN1 (11734609_at) / RFU RASL12 (11751679_a_at) / Fold change /veh RASL12 (11751679_a_at) / RFU CDKN2B (11736163_a_at) / Fold change /veh CDKN2B (11736163_a_at) / RFU PRF1 (11729649_at) / Fold change /veh PRF1 (11729649_at) / RFU, ZNF638 /// ZNF638-IT1 / Fold change vs veh, ZNF638 /// ZNF638-IT1 / RFU, PANK3 / Fold change vs veh, PANK3 / RFU, SH3YL1 / Fold change vs veh, SH3YL1 / RFU, ZEB2 / Fold change vs veh, ZEB2 / RFU, NRIP1 / Fold change vs veh, NRIP1 / RFU, PTTG1IP / Fold change vs veh, PTTG1IP / RFU, CAPN2 / Fold change vs veh, CAPN2 / RFU, MED14 / Fold change vs veh, MED14 / RFU, SNORA58 / Fold change vs veh, SNORA58 / RFU, C1orf63 / Fold change vs veh, C1orf63 / RFU, LRRFIP1 / Fold change vs veh, LRRFIP1 / RFU, NDUFAF7 / Fold change vs veh, NDUFAF7 / RFU, SLC12A2 / Fold change vs veh, SLC12A2 / RFU, IBTK / Fold change vs veh, IBTK / RFU, ESF1 / Fold change vs veh, ESF1 / Fold change vs veh, TMEM50B / RFU, TAOK1 / Fold change vs veh, TAOK1 / RFU, ACBD3 / Fold change vs veh, ACBD3 / RFU, TMA16 / Fold change vs veh, TMA16 / RFU, RWDD3 / Fold change vs veh, RWDD3 / RFU, BCAT1 / Fold change vs veh, BCAT1 / RFU, EDEM3 / Fold change vs veh, EDEM3 / RFU, TMEM33 / Fold change vs veh, TMEM33 / RFU, WDR75 / Fold change vs veh, WDR75 / RFU, AHCTF1 / Fold change vs veh, AHCTF1 / RFU, TFRC / Fold change vs veh, TFRC / RFU, ZDHHC17 / Fold change vs veh, ZDHHC17 / RFU, NOM1 / Fold change vs veh, NOM1 / RFU, ARL8B / Fold change vs veh, ARL8B / RFU, ZBTB11 / Fold change vs veh, ZBTB11 / RFU, TAMM41 / Fold change vs veh, TAMM41 / RFU, KIAA1704 /// LOC100996395 / Fold change vs veh, KIAA1704 /// LOC100996395 / RFU, ING1 / Fold change vs veh, ING1 / RFU, TRMT61B / Fold change vs veh, TRMT61B / RFU, FUBP3 / Fold change vs veh, FUBP3 / RFU, TP53 / Fold change vs veh, TP53 / RFU, TNKS2 / Fold change vs veh, TNKS2 / RFU, ZFP14 / Fold change vs veh, ZFP14 / RFU, ACTR2 / Fold change vs veh, ACTR2 / RFU, PPP3R1 / Fold change vs veh, PPP3R1 / RFU, PIK3R1 / Fold change vs veh, PIK3R1 / RFU, HNRNPA1 / Fold change vs veh, HNRNPA1 / RFU, RNF170 / Fold change vs veh, RNF170 / RFU, ZNF28 / Fold change vs veh, ZNF28 / RFU, RNGTT / Fold change vs veh, RNGTT / RFU, OGT / Fold change vs veh, OGT / RFU, BRD1 / Fold change vs veh, BRD1 / RFU, MARS / Fold change vs veh, MARS / RFU, ZNF655 / Fold change vs veh, ZNF655 / RFU, FAHD1 / Fold change vs veh, FAHD1 / RFU, BDP1 / Fold change vs veh, BDP1 / RFU, LRRCC1 / Fold change vs veh, LRRCC1 / RFU, ARID1A / Fold change vs veh, ARID1A / RFU, ZNF146 / Fold change vs veh, ZNF146 / RFU, ZNF330 / Fold change vs veh, ZNF330 / RFU, GPN3 / Fold change vs veh, GPN3 / RFU, C9orf123 / Fold change vs veh, C9orf123 / RFU, N4BP2L2 / Fold change vs veh, N4BP2L2 / RFU, ARFIP1 / Fold change vs veh, ARFIP1 / RFU, FAM179B / Fold change vs veh, FAM179B / RFU, BCL10 / Fold change vs veh, BCL10 / RFU, UHRF1BP1L / Fold change vs veh, UHRF1BP1L / RFU, BET1 / Fold change vs veh, BET1 / RFU, CNOT2 / Fold change vs veh, CNOT2 / RFU, ZNF268 / Fold change vs veh, ZNF268 / Fold change vs veh, ZNF507 / RFU, DGCR2 / Fold change vs veh, DGCR2 / RFU, WDSUB1 / Fold change vs veh, WDSUB1 / Fold change vs veh, HSP90B1 /// MIR3652 / RFU, ADSS / Fold change vs veh, ADSS / RFU, GK / Fold change vs veh, GK / RFU, ZNF148 / Fold change vs veh, ZNF148 / RFU, TAF9 / Fold change vs veh, TAF9 / RFU, SLC1A5 / Fold change vs veh, SLC1A5 / RFU, SLMO2 / Fold change vs veh, SLMO2 / RFU, ABCC4 / Fold change vs veh, ABCC4 / RFU, LOC101060439 /// RAP1B / Fold change vs veh, LOC101060439 /// RAP1B / RFU, RFX7 / Fold change vs veh, RFX7 / RFU, GTPBP10 / Fold change vs veh, GTPBP10 / RFU, CNEP1R1 / Fold change vs veh, CNEP1R1 / RFU, BIVM-ERCC5 /// ERCC5 / Fold change vs veh, BIVM-ERCC5 /// ERCC5 / RFU, ILF3 / Fold change vs veh, ILF3 / RFU 11762660_at / Fold change /veh 11762660_at / RFU VCAN (11757783_s_at) / Fold change /veh VCAN (11757783_s_at) / RFU DDX43 (11728927_at) / Fold change /veh DDX43 (11728927_at) / RFU KRT8 (11758188_x_at) / Fold change /veh KRT8 (11758188_x_at) / RFU NKD1 (11759106_at) / Fold change /veh NKD1 (11759106_at) / RFU SRD5A1 (11742802_a_at) / Fold change /veh SRD5A1 (11742802_a_at) / RFU TPSAB1 /// TPSB2 (11721975_s_at) / Fold change /veh TPSAB1 /// TPSB2 (11721975_s_at) / RFU GSTM3 (11746129_a_at) / Fold change /veh GSTM3 (11746129_a_at) / RFU IL23R (11737362_x_at) / Fold change /veh IL23R (11737362_x_at) / RFU TMEM51 (11727254_a_at) / Fold change /veh TMEM51 (11727254_a_at) / RFU PIWIL2 (11732686_x_at) / Fold change /veh PIWIL2 (11732686_x_at) / RFU ORM1 (11744905_x_at) / Fold change /veh ORM1 (11744905_x_at) / RFU CCDC152 (11743942_at) / Fold change /veh CCDC152 (11743942_at) / RFU ECM1 (11717891_a_at) / Fold change /veh ECM1 (11717891_a_at) / RFU IL23R (11748794_a_at) / Fold change /veh IL23R (11748794_a_at) / RFU TNFAIP8L3 (11732012_x_at) / Fold change /veh TNFAIP8L3 (11732012_x_at) / RFU MBOAT4 (11741988_at) / Fold change /veh MBOAT4 (11741988_at) / RFU 11764193_at / Fold change /veh 11764193_at / RFU TMEM53 (11763286_at) / Fold change /veh TMEM53 (11763286_at) / RFU MAGEB2 (11727129_at) / Fold change /veh MAGEB2 (11727129_at) / RFU TMEM200A (11744735_a_at) / Fold change /veh TMEM200A (11744735_a_at) / RFU CCDC152 (11751479_a_at) / Fold change /veh CCDC152 (11751479_a_at) / RFU FAM211A (11726209_a_at) / Fold change /veh FAM211A (11726209_a_at) / RFU RGS16 (11746705_a_at) / Fold change /veh RGS16 (11746705_a_at) / RFU VCAN (11755009_s_at) / Fold change /veh VCAN (11755009_s_at) / RFU RHOB (11743442_s_at) / Fold change /veh RHOB (11743442_s_at) / RFU RGS16 (11720943_a_at) / Fold change /veh RGS16 (11720943_a_at) / RFU RGS16 (11720944_at) / Fold change /veh RGS16 (11720944_at) / RFU, VPS4B / Fold change vs veh, VPS4B / RFU, CREB1 / Fold change vs veh, CREB1 / RFU, DNAJC13 / Fold change vs veh, DNAJC13 / RFU, GNAQ / Fold change vs veh, GNAQ / RFU, CDK5R1 / Fold change vs veh, CDK5R1 / RFU, ZRANB3 / Fold change vs veh, ZRANB3 / RFU, CUL4A / Fold change vs veh, CUL4A / RFU, CCNY / Fold change vs veh, CCNY / RFU, UFL1 / Fold change vs veh, UFL1 / RFU, COG3 / Fold change vs veh, COG3 / RFU, DIAPH2 / Fold change vs veh, DIAPH2 / RFU, SKA2 / Fold change vs veh, SKA2 / RFU, AFF3 / Fold change vs veh, AFF3 / RFU, LMF1 / Fold change vs veh, LMF1 / RFU, IPO11 / Fold change vs veh, IPO11 / RFU, DFFB / Fold change vs veh, DFFB / RFU, FOXP1 / Fold change vs veh, FOXP1 / RFU, CARD8 / Fold change vs veh, CARD8 / RFU, STRN3 / Fold change vs veh, STRN3 / RFU, ADK / Fold change vs veh, ADK / RFU, RASSF2 / Fold change vs veh, RASSF2 / RFU, WIPF1 / Fold change vs veh, WIPF1 / RFU, LARP1B / Fold change vs veh, LARP1B / RFU, RASA1 / Fold change vs veh, RASA1 / RFU, RB1 / Fold change vs veh, RB1 / RFU, PPFIA1 / Fold change vs veh, PPFIA1 / RFU, MAT2A / Fold change vs veh, MAT2A / RFU, CCT5 / Fold change vs veh, CCT5 / RFU, WDR92 / Fold change vs veh, WDR92 / RFU, CUX1 / Fold change vs veh, CUX1 / RFU, TTC7A / Fold change vs veh, TTC7A / RFU, TMEM135 / Fold change vs veh, TMEM135 / RFU, DEPTOR / Fold change vs veh, DEPTOR / RFU, CPM / Fold change vs veh, CPM / RFU, DNAJB6 / Fold change vs veh, DNAJB6 / RFU, CACNA2D3 / Fold change vs veh, CACNA2D3 / RFU, DTX4 / Fold change vs veh, DTX4 / RFU, TFCP2 / Fold change vs veh, TFCP2 / RFU, GMCL1 /// GMCL1P1 / Fold change vs veh, GMCL1 /// GMCL1P1 / RFU, AEBP2 / Fold change vs veh, AEBP2 / RFU, SNHG1 /// SNORD22 /// SNORD25 /// SNORD26 /// SNORD27 /// SNORD28 /// SNORD29 /// SNORD31 / Fold change vs veh, SNHG1 /// SNORD22 /// SNORD25 /// SNORD26 /// SNORD27 /// SNORD28 /// SNORD29 /// SNORD31 / Fold change (Aza/veh), C12orf56 (ProbeSet 11735607_a_at) / Fold change (ACY-1035/veh), C12orf56 (ProbeSet 11735607_a_at) / Fold change (Aza/veh), FGFR1OP (ProbeSet 11751329_s_at) / Fold change (ACY-1035/veh), FGFR1OP (ProbeSet 11751329_s_at) / Fold change (Aza/veh), VPS36 (ProbeSet 11739960_a_at) / Fold change (ACY-1035/veh), VPS36 (ProbeSet 11739960_a_at) / RFU SYPL1 (11715823_x_at) / Fold change /veh SYPL1 (11715823_x_at) / RFU IGFBP7 (11715501_s_at) / Fold change /veh IGFBP7 (11715501_s_at) / RFU REEP3 (11722064_at) / Fold change /veh REEP3 (11722064_at) / RFU IGLL1 (11728026_x_at) / Fold change /veh IGLL1 (11728026_x_at): dose or concentration left out as unconfirmed
Settings: ProbeSet 11756954_s_at; LIST B

Nc1ccc(-c2cccs2)cc1NC(=O)c1ccc2c(c1)cc(C1CC1)n2CCN1CCOCC1 [ACY-1035]
Fold change vs veh, ZEB2: 0.85
